Drawing on US9546152B2 (MERCK SHARP & DOHME CORP., priority 2012, dated 2017), this text covers Ki and IC50 for 21 molecules.

Assay [1] concerns the target T1, human orexin-2 receptor (Homo sapiens (Human), UniProt O43614). The assay can be described thus: radioligand binding assay, orexin-2 receptor. The note with it: membranes prepared from CHO cells expressing the OX2 receptor; read-out: hOX2R BIND hKi. Here is the method: (§1) In a typical experiment the OX1 and OX2 receptor antagonistic activity of the compounds of the present invention was determined in accordance with the following experimental method. For intracellular calcium measurements, Chinese hamster ovary (CHO) cells expressing the rat orexin-1 receptor or the human orexin-2 receptor, are grown in Iscove's modified DMEM containing 2 mM L-glutamine, […], 1% hypoxanthine-thymidine supplement, 100 U/ml penicillin, 100 μg/ml streptomycin and 10% heat-inactivated fetal calf serum (FCS). The cells are seeded at 20,000 cells/well into Becton-Dickinson black 384-well clear bottom sterile plates coated with poly-D-lysine. All reagents were from GIBCO-Invitrogen Corp. The seeded plates are incubated overnight at 37° C. and 5% CO2. Ala-6,12 human orexin-A as the agonist is prepared as a 1 mM stock solution in 1% bovine serum albumin (BSA) and diluted in assay buffer (HBSS containing 20 mM HEPES, 0.1% BSA and 2.5 mM probenecid, pH7.4) for use in the assay at a final concentration of 70 pM. Test compounds are prepared as 10 mM stock solution in DMSO, then diluted in 384-well plates, first in DMSO, then assay buffer. On the day of the assay, cells are washed 3 times with 100 μl assay buffer and then incubated for 60 min (37° C., 5% CO2) in 60 μl assay buffer containing 1 μM Fluo-4AM ester, 0.02% pluronic acid, and 1% BSA. The dye loading solution is then aspirated and cells are washed 3 times with 100 μl assay buffer. 30 μl of that same buffer is left in each well. Within the Fluorescent Imaging Plate Reader (FLIPR, Molecular Devices), test compounds are added to the plate in a volume of 25 μl, incubated for 5 min and finally 25 μl of agonist is added. Fluorescence is measured for each well at 1 second intervals for 5 minutes and the height of each fluorescence peak is compared to the height of the fluorescence peak induced by 70 pM Ala-6,12 orexin-A with buffer in place of antagonist. […] Alternatively, compound potency can be assessed by a radioligand binding assay (described in Bergman et. al. Bioorg. Med. Chem. Lett. 2008, 18, 1425-1430) in which the inhibition constant (Ki) is determined in membranes prepared from CHO cells expressing either the OX1 or OX2 receptor. The intrinsic orexin receptor antagonist activity of a compound which may be used in the present invention may be determined by these assays.

Assay [2] concerns the target T1, human orexin-2 receptor. The assay is described as follows: FLIPR Ca2+ Flux Assay, orexin-2 receptor. Conditions: CHO cells expressing the human orexin-2 receptor; agonist 70 pM Ala-6,12 human orexin-A; read-out: hOX2R FLIPR IC50. Format: cell-based. Here is the method:
as §1

T1 sequence (O43614 whole entry): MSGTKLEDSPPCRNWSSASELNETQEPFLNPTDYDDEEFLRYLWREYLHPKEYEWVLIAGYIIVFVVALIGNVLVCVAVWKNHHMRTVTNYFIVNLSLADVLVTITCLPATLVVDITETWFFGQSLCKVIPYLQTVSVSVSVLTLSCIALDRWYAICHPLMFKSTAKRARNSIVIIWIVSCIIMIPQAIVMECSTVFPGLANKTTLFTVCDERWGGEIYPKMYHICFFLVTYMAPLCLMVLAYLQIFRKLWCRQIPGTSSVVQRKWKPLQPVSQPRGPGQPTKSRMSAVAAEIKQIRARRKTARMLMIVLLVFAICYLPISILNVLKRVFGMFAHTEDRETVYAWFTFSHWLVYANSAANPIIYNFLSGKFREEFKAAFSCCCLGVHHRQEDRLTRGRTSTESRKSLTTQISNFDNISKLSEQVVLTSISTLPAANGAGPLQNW

Consider `Cc1c(C#N)ccnc1O[C@@H]1CC[C@@H](C)N(C(=O)c2ccccc2-c2cscn2)C1` [Example 33, 3-methyl-2-{[(3R,6R)-6-methyl-1-{[2-(1,3-thiazol-4-yl)phenyl]carbonyl}piperidin-3-yl]oxy}pyridine-4-carbonitrile], for which the Ki in assay [1] was determined as 0.2 nM. Besides, the IC50 in assay [2] was 6 nM. As for `COc1ccc(C(=O)N2C[C@H](Oc3nccc(C#N)c3C)CC[C@H]2C)c(OC)n1` [Example 73, 2-({(3R,6R)-1-[(2,6-dimethoxypyridin-3-yl)carbonyl]-6-methylpiperidin-3-yl}oxy)-3-methylpyridine-4-carbonitrile], in assay [1], the Ki was found to be 32.7 nM.

For the molecule `COc1ccc(C(=O)N2C[C@H](Oc3nccc(C#N)c3C)CC[C@H]2C)c(-n2nccn2)c1` [Example 7, 2-{[(3R,6R)-1-{[4-methoxy-2-(2H-1,2,3-triazol-2-yl)phenyl]carbonyl}-6-methylpiperidin-3-yl]oxy}-3-methylpyridine-4-carbonitrile], the Ki in assay [1] was 1.3 nM. For the same molecule, the IC50 in assay [2] is 13 nM. Turning to `Cc1c(C#N)ccnc1O[C@@H]1CC[C@@H](C)N(C(=O)c2nscc2-c2ccccc2)C1` [Example 50], in assay [1], the Ki was determined as 2 nM. Moreover, the IC50 in assay [2] was 22 nM. For `COc1ccc(C(=O)N2C[C@H](Oc3nccc(C#N)c3C)CC[C@H]2C)c(C2CC2)n1` [Example 5, 2-({(3R,6R)-1-[(2-cyclopropyl-6-methoxypyridin-3-yl)carbonyl]-6-methylpiperidin-3-yl}oxy)-3-methylpyridine-4-carbonitrile], in that order: 1.7 nM and 32 nM. For `COc1c(C#N)ccnc1O[C@@H]1CC[C@@H](C)N(C(=O)c2ccc(F)cc2-n2nccn2)C1` [Example 98, 2-{[(3R,6R)-1-{[4-fluoro-2-(2H-1,2,3-triazol-2-yl)phenyl]carbonyl}-6-methylpiperidin-3-yl]oxy}-3-methoxypyridine-4-carbonitrile], in that order: 0.3 nM and 19 nM. Take `Cc1c(C#N)ccnc1O[C@@H]1CC[C@@H](C)N(C(=O)c2nscc2-n2nccn2)C1` [Example 55, 3-methyl-2-{[(3R,6R)-6-methyl-1-{[4-(2H-1,2,3-triazol-2-yl)isothiazol-3-yl]carbonyl}piperidin-3-yl]oxy}pyridine-4-carbonitrile]: in assay [1], the Ki was found to be 7.4 nM. In addition, in assay [2], the IC50 came out at 81 nM. Consider `Cc1c(C#N)ccnc1O[C@@H]1CC[C@@H](C)N(C(=O)C2=C(c3ccccn3)CCC2)C1` [Example 63, 3-methyl-2-({(3R,6R)-6-methyl-1-[(2-pyridin-2-ylcyclopent-1-en-1-yl)carbonyl]piperidin-3-yl}oxy)pyridine-4-carbonitrile], for which the Ki in assay [1] was 4 nM. In addition, the IC50 in assay [2] came to 59 nM. Regarding `COc1ccc(C(=O)N2C[C@H](Oc3nccc(C#N)c3C)CC[C@H]2C)c(C2CCC2)n1` [Example 66], the Ki in assay [1] was 1.4 nM. For the same molecule, the IC50 in assay [2] was 77 nM. Turning to `Cc1c(C#N)ccnc1O[C@@H]1CC[C@@H](C)N(C(=O)c2ccccc2OC(C)C)C1` [Example 21, 3-methyl-2-{[(3R,6R)-6-methyl-1-{[2-(1-methylethoxy)phenyl]carbonyl}piperidin-3-yl]oxy}pyridine-4-carbonitrile], the Ki in assay [1] came to 0.6 nM. Also, in assay [2], the IC50 stood at 8 nM. For `Cc1c(C#N)ccnc1O[C@@H]1CC[C@@H](C)N(C(=O)c2ccccc2OC(F)(F)F)C1` [Example 62, 3-methyl-2-{[(3R,6R)-6-methyl-1-{[2-(trifluoromethoxy)phenyl]carbonyl}piperidin-3-yl]oxy}pyridine-4-carbonitrile], in that order: 0.8 nM and 16 nM. In the same order, the values of `Cc1c(C#N)ccnc1O[C@@H]1CC[C@@H](C)N(C(=O)c2ccccc2-c2ncco2)C1` [Example 27, 3-methyl-2-{[(3R,6R)-6-methyl-1-{[2-(1,3-oxazol-2-yl)phenyl]carbonyl}piperidin-3-yl]oxy}pyridine-4-carbonitrile] are 0.3 nM and 17 nM.

Take `Cc1c(C#N)ccnc1O[C@@H]1CC[C@@H](C)N(C(=O)c2sncc2-c2ccccc2)C1` [Example 20, 3-methyl-2-({(3R,6R)-6-methyl-1-[(4-phenylisothiazol-5-yl)carbonyl]piperidin-3-yl}oxy)pyridine-4-carbonitrile]: the Ki in assay [1] came to 15.2 nM. Besides, the IC50 in assay [2] came out at 89 nM. As to `Cc1c(C#N)ccnc1O[C@@H]1CC[C@@H](C)N(C(=O)c2cccc(F)c2-n2nccn2)C1` [Example 12, 2-{[(3R,6R)-1-{[3-fluoro-2-(2H-1,2,3-triazol-2-yl)phenyl]carbonyl}-6-methylpiperidin-3-yl]oxy}-3-methylpyridine-4-carbonitrile], in assay [1], the Ki is 1 nM. The IC50 in assay [2] turned out to be 12 nM. In the same order, the values of `Cc1c(C#N)ccnc1O[C@@H]1CC[C@@H](C)N(C(=O)c2ccc(Cl)cc2-n2nccn2)C1` [Example 4, 2-{[(3R,6R)-1-{[4-chloro-2-(2H-1,2,3-triazol-2-yl)phenyl]carbonyl}-6-methylpiperidin-3-yl]oxy}-3-methylpyridine-4-carbonitrile] are 0.4 nM and 12 nM. In the same order, the values of `CSc1ccc(C(=O)N2C[C@H](Oc3nccc(C#N)c3C)CC[C@H]2C)c(-n2nccn2)n1` [Example 86, 3-methyl-2-{[(3R,6R)-6-methyl-1-{[6-(methylsulfanyl)-2-(2H-1,2,3-triazol-2-yl)pyridin-3-yl]carbonyl}-piperidin-3-yl]oxy}pyridine-4-carbonitrile] are 5.1 nM and 126 nM. `COc1ccc(C(=O)N2C[C@H](Oc3nccc(C#N)c3C)CC[C@H]2C)c(-c2ccncc2)n1` [Example 48, 2-({(3R,6R)-1-[(6-methoxy-2,4′-bipyridin-3-yl)carbonyl]-6-methylpiperidin-3-yl}oxy)-3-methylpyridine-4-carbonitrile]: the Ki in assay [1] was determined as 8.9 nM. In addition, in assay [2], the IC50 was determined as 65 nM. Consider `Cc1c(C#N)ccnc1O[C@@H]1CC[C@@H](C)N(C(=O)c2c(F)cccc2-c2nccs2)C1` [Example 18, 2-{[(3R,6R)-1-{[2-fluoro-6-(1,3-thiazol-2-yl)phenyl]carbonyl}-6-methylpiperidin-3-yl]oxy}-3-methylpyridine-4-carbonitrile], for which the Ki in assay [1] is 0.1 nM. In assay [2], the IC50 is 7 nM. For `Cc1c(C#N)ccnc1O[C@@H]1CC[C@@H](C)N(C(=O)c2cc(F)ccc2-n2nccn2)C1` [Example 69, 2-{[(3R,6R)-1-{[5-fluoro-2-(2H-1,2,3-triazol-2-yl)phenyl]carbonyl}-6-methylpiperidin-3-yl]oxy}-3-methylpyridine-4-carbonitrile], in that order: 0.6 nM and 11 nM. Consider `Cc1c(C#N)ccnc1O[C@@H]1CC[C@@H](C)N(C(=O)c2ccccc2-c2nccs2)C1` [Example 44, 3-methyl-2-{[(3R,6R)-6-methyl-1-{[2-(1,3-thiazol-2-yl)phenyl]carbonyl}piperidin-3-yl]oxy}pyridine-4-carbonitrile], for which, in assay [1], the Ki stood at 0.1 nM. Besides, the IC50 in assay [2] stood at 8 nM. As for `COc1cc(-n2nccn2)c(C(=O)N2C[C@H](Oc3nccc(C#N)c3C)CC[C@H]2C)cn1` [Example 85, 2-{[(3R,6R)-1-{[6-methoxy-4-(2H-1,2,3-triazol-2-yl)pyridin-3-yl]carbonyl}-6-methylpiperidin-3-yl]oxy}-3-methylpyridine-4-carbonitrile], the Ki in assay [1] worked out at 43.2 nM.
